The results in this text go back to article PMC2551583, “Optimizing bioavailability of oral administration of small peptides through pharmacokinetic and pharmacodynamic parameters: The effect of water and timing of meal intake on oral delivery of Salmon Calcitonin” (BMC Clinical Pharmacology, 2008).

The nature of this data set: Plasma sCT pharmacokinetics after a single dose, phase I crossover study. It counts as in vivo, healthy postmenopausal women. Here is the method:
The study was a randomized, partially-blind, placebo-controlled, single dose, exploratory crossover study to assess the PK and PD of 0.8 mg SMC021 in healthy postmenopausal women when taken in the morning with different volumes of water (50 or 200 ml) and at different times before a meal (10, 30, or 60 minutes). Subjects were blinded to treatment with SMC021 and placebo, but were not blinded to water volume intake and pre-meal dosing time. The PK and PD profiles of Miacalcic® 200 IU NS were additionally assessed in an open-label manner in a small subset of subjects.
Females fulfilling the inclusion criteria of being generally healthy ambulatory female volunteers, aged between 40–70 years and having passed a natural or surgically-induced menopause at least 5 years before entering the study and being without diseases or medications known to affect bone metabolism were allowed to participate. The study was of a 5-period, 10-treatment, 56-sequence crossover design. Subjects were randomly allocated to a sequence. The study contained 10 possible treatments, comprising a combination of study medication of SMC021, placebo, and Miacalcic® NS), water volume given with the tablet (50/200 ml water, and dosing time to meal (10, 30 or 60 minutes pre-meal) as outlined in Table 1. To reduce the burden of treatment to the subjects, an incomplete cross-over design was used. […]
The concentration of plasma sCT was measured by as chemiluminescence-based assay that previously have been described. Values measured below the lower limit of quantification of 2.5 pg/ml was assigned the value of 2.5 pg/ml. […] The lower limit of quantification (LLOQ) was 2.5 pg/mL. The quality control (QC) samples, ranging from 2.5 pg/mL to 700 pg/mL, were prepared daily and measured in 3 to 5 replicates. The overall accuracy and precision (CV) of QC samples, measured on 11 different days was 101.3% and 10.1% for 2.5 pg/mL concentration and 94.3% and 6.0% for 700 pg/mL concentration, respectively. […]

Turning to salmon calcitonin [sCT], the “time to maximum plasma sCT concentration after drug intake” value (minimal if any effect of water and meal time) is recorded as “approximately 15 minutes”. Besides, where the note is “oral 0.8 mg with 50 ml water vs 200 IU nasal spray”, the “fold sCT AUC0–4 with 50 ml of water versus nasal calcitonin” value is listed as 4 fold. Also, the “fold higher absorption of sCT with 50 ml as compared with 200 ml of water” value (oral 0.8 mg, Cmax and AUC0–4, irrespective of meal timing (10, 30, 60 min)) is reported as “two-fold increase”.
